Assay results reported in patent US10434128B2, “Composition comprising Ulmi cortex extracts for inhibiting ovotoxicity” (DONGGUK UNIVERSITY GYEONGJU CAMPUS INDUSTRY-ACADEMY …, priority 2017, dated 2019).

Key:
[1] = tested on: PARP and caspase-3; assay: Western blot of apoptosis proteins in CHO-K1 cells with VCD-induced ovotoxicity; assay type: cell-based, Chinese hamster; conditions: 1.5 mM VCD; compared to a control
Procedure: As confirmed in Example 4, when CHO-K1 cells were treated with VCD, apoptosis occurred. To examine an effect of pretreatment with the Ulmi cortex extract (300 μg/ml), proteins associated with apoptosis, i.e., poly(ADP-ribosyl) polymerase (PARP) and caspase-3, were identified through western blot analysis.
As described in Example 5-1, a protein sample was collected from CHO-K1 cells pretreated with 300 μg/ml of the Ulmi cortex extract for […] and treated with 1.5 mM VCD. For this, the cells treated with VCD were washed three times with PBS, RIPA buffer was added thereto, and the resulting cells were allowed to react at 4° C. for 30 minutes and then centrifuged at 12,000 rpm for 30 minutes to collect a supernatant, and proteins were extracted therefrom. Subsequently, the same amount of the proteins were separated on a sodium dodecyl sulfate-polyacrylamide gel electrophoresis (SDS-PAGE), and then transferred to a PVDF membrane. To block non-specific binding, the membrane was treated with a blocking buffer (5% skim milk) for 1 hour, and washed with a PBST solution containing 0.1% Tween 20. Thereafter, the membrane was allowed to react with primary antibodies against PARP and caspase-3 at 4° C. overnight. […]

[2] = tested on: B6C3F1 female mice; assay: VCD-induced premature ovarian failure animal model; conditions: VCD 160 mg/kg/day i.p. five times a week, 2 weeks
Procedure: B6C3F1 female mice at the age of 3 weeks (10 g to 12 g) from the same date of birth (DOB) as an experimental animal were purchased from the Central Lab Animal Inc., were adapted to a laboratory environment while sufficiently fed feed and water, and then used in an experiment. The laboratory environment was maintained at a temperature of 22±2° C. and a 12-hour day/12-hour night cycle was maintained until the experiment was completed. […]
Body weight changes were observed every week, based on the body weight measured on the start day of the experiment (day 1). […] One ovary was removed and the ovarian weight was measured and an ovarian weight index was calculated as a ratio of the measured ovarian weight with respect to the body weight immediately before sacrifice.

[3] = tested on: CHO-K1 cells; assay: Cell morphology observation, VCD-induced cell damage; assay type: cell-based, Chinese hamster; conditions: 1.5 mM VCD, 24 hours
Procedure: Through cell morphological changes, it was confirmed whether the Ulmi cortex extract protected CHO-K1 cells from cell damage induced by VCD.
First, cells were distributed into a 96-well plate at a density of 1×10^4 cells/well, and the cells were cultured until the next day, followed by serum starvation for 4 hours. Subsequently, the cells were pre-treated with 300 μg/ml of the Ulmi cortex extract for 4 hours and treated with 1.5 mM VCD, and then incubated at 37° C. under 5% CO2 for 24 hours, and the cells were observed using an optical microscope (Nikon, Japan).

## C1CC2OC2CC1C1CO1 (centres unmarked) [VCD, 4-vinylcyclohexene diepoxide]
[1]
  proform band of PARP, treated only with VCD: decreased
  proform band of caspase-3, treated only with VCD: became pale
[2]
  ovarian weight index, negative control (VCD) vs normal group: significant decrease compared to the normal group
  sizes of the ovary and the uterus, negative control (VCD): significantly decreased
[3]
  cell morphology, group treated only with VCD: apoptosis was observed
